Reference: patent US20140350273A1, “PEDIATRIC USES OF CABAZITAXEL” (AVENTIS PHARMA S.A., priority 2012, published 2014)
Where two headings read alike, the source gives them in different places.

Test system: human osteosarcoma DM77
Assay type: in vivo
Conditions: for Tumor Volume Data (Day 21) Median / ΔT/ΔC % / ΔT/ΔC: day 21; for MTTE / T-C: volume endpoint 1400 mm^3
Description: In the reported examples supporting this invention, vials of the clinical formulation of cabazitaxel and docetaxel were used. […] The resultant solution contains 10 mg/mL of cabazitaxel. Stock solution of cabazitaxel was then diluted in 0.9% sodium chloride.
This efficacy may be quantified, for example, as changes in tumor volume for each treated (T) and control (C) group, which are calculated for each animal and each day by subtracting the tumor volume on the day of first treatment (staging day) from the tumor volume on the specified observation day. This allows calculating the tumor growth inhibition: ΔT/ΔC=(median delta T/median delta C)×100. Individual tumor volume changes from baseline are thereafter analyzed by a non-parametric two-way ANOVA-TYPE (with factors: group and repeated days) followed by a post-hoc contrasts analysis, with Bonferroni-Holm adjustment for multiplicity, comparing all treated groups to the control group. […] A probability less than 5% (p<0.05) was considered as significant.
Based on the National Cancer Institute (NCl) standards, a ΔT/ΔC≦40% is the minimal level required to declare activity.
This efficacy may also be quantified by the number of tumor regressions observed after therapy. Individual mice reporting a tumor volume ≦50% of the Day 0 measurement for two consecutive measurements over a seven day period were considered partial responders (PR). Individual mice lacking palpable tumors (<4×4 mm^2 for two consecutive measurements over a seven day period) were classified as complete responders (CR); a CR that persisted until study completion was considered a tumor-free survivor (TFS).
Efficacy could also be determined at study completion, using tumor growth delay (T-C) in days, which is calculated using the median time to endpoint (MTTE) value for each treatment (T) group versus control (C). A Log Rank multiple comparison test with Bonferroni-Holm adjustment for multiplicity was applied on individual TTE to compare the treated groups to the control group.
The efficacy of cabazitaxel in comparison with docetaxel on pediatric patient-derived tumor xenografts was determined experimentally in the following manner:
The animals subjected to the experiment are subcutaneously grafted unilaterally with approximately 30 mg of a tumor fragment from low passage pediatric patient-derived tumor xenografts. The animals are implanted with a human patient-derived pediatric tumor xenografted in immuno-compromised mice (Harlan; nu/nu). Several days post tumor implantation, mice are randomized according to their tumor burden to the different groups of treatments and controls. The agents are dosed intravenously at 5.8, 9.3, 15 or 24.2 mg/kg every 4 days for a total of 3 doses (q4d×3) to mice bearing a tumor burden at start of therapy (day 0) ranged from 125 to 250 mm^3.
Beginning Day 0, animals were observed daily and weighed twice weekly using a digital scale; data including individual and mean gram weights (Mean We±SD), mean percent weight change versus Day 0 were recorded for each group. Animal deaths were recorded daily and designated as drug-related (D), technical (T), tumor related (B), or unknown (U) based on weight loss and gross observation; single agent or combination groups reporting a mean >20% for a period of 7 days and/or >10% mortality were considered above the maximum tolerated dose (MTD) for that treatment on the evaluated regimen.
The selected tumor model, DM77, was a low passage patient-derived tumor xenograft derived from an osteosarcoma taken from the lung of a patient. […]

CO[C@H]1C(=O)[C@]2(C)[C@@H](OC)C[C@H]3OC[C@@]3(OC(C)=O)[C@H]2[C@H](OC(=O)c2ccccc2)[C@]2(O)C[C@H](OC(=O)[C@H](O)[C@@H](NC(=O)OC(C)(C)C)c3ccccc3)C(C)=C1C2(C)C [Cabazitaxel, 4α-acetoxy-2α-benzoyloxy-5β,20-epoxy-1β-hydroxy-7β,10β-dimethoxy-9-oxo-11-taxen-13α-yl (2R,3S)-3-tert-butoxycarbonyl-amino-2-hydroxy-3-phenylpropionate]
#CR (5.8 mg/kg i.v./q4dx3): 0/0/0
#PR (5.8 mg/kg i.v./q4dx3): 0/0/0
#TFS (5.8 mg/kg i.v./q4dx3): 0/0/0
Drug Deaths Total (5.8 mg/kg i.v./q4dx3): 0
Weight Change at Nadir % (5.8 mg/kg i.v./q4dx3): −5%
Weight Change at Nadir Day (5.8 mg/kg i.v./q4dx3): 11 days
Tumor Volume Data (Day 21) Median (5.8 mg/kg i.v./q4dx3): 333 mm^3
ΔT/ΔC % (5.8 mg/kg i.v./q4dx3): 14.1%
MTTE (5.8 mg/kg i.v./q4dx3): 49 days
T-C (5.8 mg/kg i.v./q4dx3): 24 days
ΔT/ΔC (5.8 mg/kg q4d×3 IV): 14.1%
tumor volume changes from baseline, Median +/− nMAD (5.8 mg/kg, DAY 4): 47 +/− 47
tumor volume changes from baseline, Median +/− nMAD (5.8 mg/kg, DAY 7): 121 +/− 80
tumor volume changes from baseline, Median +/− nMAD (5.8 mg/kg, DAY 11): 162 +/− 89
tumor volume changes from baseline, Median +/− nMAD (5.8 mg/kg, DAY 14): 162 +/− 97
tumor volume changes from baseline, Median +/− nMAD (5.8 mg/kg, DAY 18): 195 +/− 122
tumor volume changes from baseline, Median +/− nMAD (5.8 mg/kg, DAY 21): 129 +/− 129
tumor volume changes from baseline, Median +/− nMAD (5.8 mg/kg, DAY 25): 96 +/− 115
tumor volume changes from baseline, Median +/− nMAD (5.8 mg/kg, DAY 28): 96 +/− 115
tumor volume changes from baseline, Median +/− nMAD (5.8 mg/kg, DAY 32): 96 +/− 109
tumor volume changes from baseline, Median +/− nMAD (5.8 mg/kg, DAY 35): 169 +/− 182
tumor volume changes from baseline, Median +/− nMAD (5.8 mg/kg, DAY 39): 239 +/− 172.5
tumor volume changes from baseline, Median +/− nMAD (5.8 mg/kg, DAY 42): 240 +/− 162
tumor volume changes from baseline, Median +/− nMAD (5.8 mg/kg, DAY 46): 364.5 +/− 226
tumor volume changes from baseline, Median +/− nMAD (5.8 mg/kg, DAY 49): 402 +/− 254
tumor volume changes from baseline, Median +/− nMAD (5.8 mg/kg, DAY 53): 706 +/− 516
tumor volume changes from baseline, Median +/− nMAD (5.8 mg/kg, DAY 56): 878 +/− 602.5
#CR (9.3 mg/kg i.v./q4dx3): 0
#PR (9.3 mg/kg i.v./q4dx3): 2
#TFS (9.3 mg/kg i.v./q4dx3): 0
Drug Deaths Total (9.3 mg/kg i.v./q4dx3): 0
Weight Change at Nadir % (9.3 mg/kg i.v./q4dx3): −8%
Weight Change at Nadir Day (9.3 mg/kg i.v./q4dx3): 11 days
Tumor Volume Data (Day 21) Median (9.3 mg/kg i.v./q4dx3): 131 mm^3
ΔT/ΔC % (9.3 mg/kg i.v./q4dx3): 0%
MTTE (9.3 mg/kg i.v./q4dx3): >60 days
T-C (9.3 mg/kg i.v./q4dx3): >35 days
numbers of PR (9.3 mg/kg q4d×3 IV): 2/9
ΔT/ΔC (9.3 mg/kg q4d×3 IV): 0%
tumor volume changes from baseline, Median +/− nMAD (9.3 mg/kg, DAY 4): 54 +/− 54
tumor volume changes from baseline, Median +/− nMAD (9.3 mg/kg, DAY 7): 73 +/− 73
tumor volume changes from baseline, Median +/− nMAD (9.3 mg/kg, DAY 11): 19 +/− 35
tumor volume changes from baseline, Median +/− nMAD (9.3 mg/kg, DAY 14): 19 +/− 35
tumor volume changes from baseline, Median +/− nMAD (9.3 mg/kg, DAY 18): 0 +/− 33
tumor volume changes from baseline, Median +/− nMAD (9.3 mg/kg, DAY 21): 0 +/− 34
tumor volume changes from baseline, Median +/− nMAD (9.3 mg/kg, DAY 25): −19 +/− 26
tumor volume changes from baseline, Median +/− nMAD (9.3 mg/kg, DAY 28): −45 +/− 26
tumor volume changes from baseline, Median +/− nMAD (9.3 mg/kg, DAY 32): −45 +/− 26
tumor volume changes from baseline, Median +/− nMAD (9.3 mg/kg, DAY 35): −66 +/− 7
tumor volume changes from baseline, Median +/− nMAD (9.3 mg/kg, DAY 39): −66 +/− 7
tumor volume changes from baseline, Median +/− nMAD (9.3 mg/kg, DAY 42): −66 +/− 7
tumor volume changes from baseline, Median +/− nMAD (9.3 mg/kg, DAY 46): −66 +/− 7
tumor volume changes from baseline, Median +/− nMAD (9.3 mg/kg, DAY 49): −66 +/− 7
tumor volume changes from baseline, Median +/− nMAD (9.3 mg/kg, DAY 53): −47 +/− 25
tumor volume changes from baseline, Median +/− nMAD (9.3 mg/kg, DAY 56): −47 +/− 26
#CR (15 mg/kg i.v./q4dx3): 0
#PR (15 mg/kg i.v./q4dx3): 6
#TFS (15 mg/kg i.v./q4dx3): 0
Drug Deaths Total (15 mg/kg i.v./q4dx3): 0
Weight Change at Nadir % (15 mg/kg i.v./q4dx3): −9%
Weight Change at Nadir Day (15 mg/kg i.v./q4dx3): 11 days
Tumor Volume Data (Day 21) Median (15 mg/kg i.v./q4dx3): 78 mm^3
ΔT/ΔC % (15 mg/kg i.v./q4dx3): −9.3%
MTTE (15 mg/kg i.v./q4dx3): >60 days
T-C (15 mg/kg i.v./q4dx3): >35 days
tumor volume changes from baseline, Median +/− nMAD (15 mg/kg, DAY 4): 0 +/− 0 (n = 9)
tumor volume changes from baseline, Median +/− nMAD (15 mg/kg, DAY 7): 0 +/− 25
tumor volume changes from baseline, Median +/− nMAD (15 mg/kg, DAY 11): −53 +/− 19
tumor volume changes from baseline, Median +/− nMAD (15 mg/kg, DAY 14): −53 +/− 27
tumor volume changes from baseline, Median +/− nMAD (15 mg/kg, DAY 18): −73 +/− 20
tumor volume changes from baseline, Median +/− nMAD (15 mg/kg, DAY 21): −85 +/− 13
tumor volume changes from baseline, Median +/− nMAD (15 mg/kg, DAY 25): −85 +/− 13
tumor volume changes from baseline, Median +/− nMAD (15 mg/kg, DAY 28): −85 +/− 13
tumor volume changes from baseline, Median +/− nMAD (15 mg/kg, DAY 32): −85 +/− 19
tumor volume changes from baseline, Median +/− nMAD (15 mg/kg, DAY 35): −85 +/− 19
tumor volume changes from baseline, Median +/− nMAD (15 mg/kg, DAY 39): −85 +/− 38
tumor volume changes from baseline, Median +/− nMAD (15 mg/kg, DAY 42): −85 +/− 38
tumor volume changes from baseline, Median +/− nMAD (15 mg/kg, DAY 46): −85 +/− 38
tumor volume changes from baseline, Median +/− nMAD (15 mg/kg, DAY 49): −85 +/− 38
tumor volume changes from baseline, Median +/− nMAD (15 mg/kg, DAY 53): −85 +/− 38
tumor volume changes from baseline, Median +/− nMAD (15 mg/kg, DAY 56): −85 +/− 38
#CR (24.2 mg/kg i.v./q4dx3): 1
#PR (24.2 mg/kg i.v./q4dx3): 5
#TFS (24.2 mg/kg i.v./q4dx3): 1
Drug Deaths Total (24.2 mg/kg i.v./q4dx3): 0
Weight Change at Nadir % (24.2 mg/kg i.v./q4dx3): −15%
Weight Change at Nadir Day (24.2 mg/kg i.v./q4dx3): 14 days
Tumor Volume Data (Day 21) Median (24.2 mg/kg i.v./q4dx3): 101.5 mm^3
ΔT/ΔC % (24.2 mg/kg i.v./q4dx3): −6.9%
MTTE (24.2 mg/kg i.v./q4dx3): >60 days
T-C (24.2 mg/kg i.v./q4dx3): >35 days
tumor volume changes from baseline, Median +/− nMAD (24.2 mg/kg, DAY 4): 22 +/− 22
tumor volume changes from baseline, Median +/− nMAD (24.2 mg/kg, DAY 7): 0 +/− 9.5
tumor volume changes from baseline, Median +/− nMAD (24.2 mg/kg, DAY 11): −26.5
tumor volume changes from baseline, Median +/− nMAD (24.2 mg/kg, DAY 14): −29.5
tumor volume changes from baseline, Median +/− nMAD (24.2 mg/kg, DAY 18): −61.5 +/− 27
tumor volume changes from baseline, Median +/− nMAD (24.2 mg/kg, DAY 21): −63 +/− 25.5
tumor volume changes from baseline, Median +/− nMAD (24.2 mg/kg, DAY 25): −69.5
tumor volume changes from baseline, Median +/− nMAD (24.2 mg/kg, DAY 28): −60 +/− 28.5
tumor volume changes from baseline, Median +/− nMAD (24.2 mg/kg, DAY 32): −60 +/− 28.5
tumor volume changes from baseline, Median +/− nMAD (24.2 mg/kg, DAY 35): −60 +/− 35
tumor volume changes from baseline, Median +/− nMAD (24.2 mg/kg, DAY 39): −60 +/− 35
tumor volume changes from baseline, Median +/− nMAD (24.2 mg/kg, DAY 42): −71 +/− 46.5
tumor volume changes from baseline, Median +/− nMAD (24.2 mg/kg, DAY 46): −71 +/− 46.5
tumor volume changes from baseline, Median +/− nMAD (24.2 mg/kg, DAY 49): −71 +/− 43
tumor volume changes from baseline, Median +/− nMAD (24.2 mg/kg, DAY 53): −64.5 +/− 45.5
tumor volume changes from baseline, Median +/− nMAD (24.2 mg/kg, DAY 56): −64.5 +/− 46.5
antitumor activity compared with docetaxel (conclusion of example 4, dose equivalent basis): more efficacious than docetaxel at both mid doses
